Results from patent US20260191196A1, “COMPOSITIONS AND METHODS FOR IMPROVING SOIL MICROBIAL POPULATIONS” (SYNGENTA CROP PROTECTION AG, priority 2022, published 2026).

Test system: arbuscular mycorrhizae fungi
Experiment: Mycorrhization in soybean roots after seed treatment
Format: in vivo
Conditions: Glycine max; soybean variety Toliman, seed treatment 0.15 mg ai/seed, mycorrhizal inoculant Blend A; relative to control; read-out: [%] arbuscular mycorrhizae fungi colonization vs. control.
Protocol: Soybeans of variety Toliman were treated with 0.15 mg ai/seed of cyclobutrifluram and analogues, and planted in 1.5 L pots of 0-3 mm sieved soil. The seeds were inoculated with Bradyrhizobium japonicum using a commercially available product for soybeans.
In a first series, for each active ingredient tested, 15 replicate pots were sowed. In each pot, 3 seeds were sowed. After germination, 2 seedling was removed from each pot to a final number of 1 plant per pot. Each pot was inoculated with a small amount of a mycorrhizal inoculant (Blend A, commercially available from Symbiom, Czech Republic). The plants were grown in a greenhouse for 81 days under the following conditions: Humidity at 45-64%, Temperature of 22° C. to 24° C., in a 16/8 hour day/night cycle. In a further test series, Soybeans seeds treated as outlined above were then planted in 1 Lpots of 0-3 mm sieved soil. For each active ingredient, 8 replicate pots were sowed, whereby in each pot, 3 seeds were sowed. After germination, 2 seedlings were removed from each pot to a final number of 1 plant per pot.
The plants were then grown in a growth chamber for 42 days with the following conditions: Temperature of 20° C. and with a 12/12 hour day/night.
After harvest, the percent mycorrhization was quantified using the methods of McGonigle et al. (T. P. McGONIGLE, M. H. MILLER and D. G. EVANS et al., “A new method which gives an objective measure of colonization of roots by vesicular-arbuscular mycorrhizal fungi”. New Phytol. Vol. 115 (3): 495-501.).

| SMILES | response vs control in vivo at 0.15 mg/seed [%] |
| --- | --- |
| O=C(N[C@@H]1CO[C@@H]1c1ccc(F)cc1F)c1nccnc1C(F)(F)F (racemic) [Compound A5] | 81 |
| O=C(N[C@H]1CC[C@H]1c1ccc(F)cc1Cl)c1ncccc1C(F)(F)F [Compound A3] | 84 |
| O=C(N[C@@H]1CO[C@@H]1c1ccc(Cl)cc1Cl)c1nccnc1C(F)(F)F (racemic) [Compound A6] | 97 |
| O=C(N[C@H]1CC[C@H]1c1ccc(F)cc1F)c1ncccc1C(F)(F)F [Compound A4] | 67 |
| O=C(N[C@H]1CC[C@H]1c1ccc(F)cc1F)c1nccnc1C(F)(F)F [Compound A1] | 61 |
| O=C(N[C@@H]1CO[C@@H]1c1ccc(Cl)cc1Cl)c1cccnc1C(F)(F)F (racemic) [Compound A7] | 76 |
| O=C(N[C@H]1CC[C@H]1c1ccc(F)cc1Cl)c1cccnc1C(F)(F)F [Compound A2] | 72 |

Test system: bacteria (16S) and fungi (ITS) communities
Experiment: Potato field trial: soil microbiome community and biodiversity
Format: in vivo, potato (Solanum tuberculosum L.)
Conditions: not given
Protocol: In this experiment, assuming that biodiversity can be measured by the taxonomic richness and abundance of each taxon, the differences between treatments are determined and their effect on populations and beneficial species over time is verified. This leads to testing two hypotheses. Firstly, there is an impact of cyclobutrifluram applications on microbial diversity. Secondly, the use of cyclobutrifluram improves beneficial microbial diversity over time. These hypotheses were tested in two potato farms in the USA.
The experiment was carried out in two potato (Solanum tuberculosum L.) fields located in two test locations in Louisiana, USA, described as locations A and B in Table 2. In each experimental field, three products were tested in an area of 10 m^2 (Table 3) and three replicates per product were established by complete block randomized. To evaluate the effects on the microbiome a “Check” plot (untreated) was established. In addition, fluopyram was employed as a comparative example. Fluopyram is a widely used fungicide and nematicide, and represents the industry standard herein.
To analyse the microbial biodiversity, three soil samples were taken per treatment and each sample consisted of soil collected from three different points within the plots. In this way, the effect of soil variability was minimized, since there were nine samples per treatment. […]
As set out above, to detect microbial community modifications in the soil microbiome associated with the cyclobutrifluram treatment, PCR amplification and successive high-throughput sequencing of bacterial and fungal taxonomical marker genes (the small-subunit ribosomal RNA gene (16S) and the ribosomal internal transcribed spacers (ITS) respectively) were performed on plant-associated soil samples. An exploratory data analysis was conducted to describe the microbial biodiversity and the behaviour of the percentage of the abundance of species under the evaluated factors. […]

| SMILES | beneficial effect on soil microbiome |
| --- | --- |
| O=C(NCCc1ncc(C(F)(F)F)cc1Cl)c1ccccc1C(F)(F)F [fluopyram] | did not show any beneficial effect |

Same assay, conditions: 250 gai/ha

| SMILES | impact on plant-pathogenic microbes |
| --- | --- |
| O=C(NCCc1ncc(C(F)(F)F)cc1Cl)c1ccccc1C(F)(F)F [fluopyram] | showed an impact in promoting in particular plant-pathogenic microbes |
